Measurements: ChEMBL document CHEMBL3046201, “Insights into the molecular mechanism of tolerance to carboxylic acid amide (CAA) fungicides in Pythium aphanidermatum” (2012)
Activity calls are given as the source filed them. The rule behind the calls is not given here.

Key:
[1] = test system: Saprolegnia monoica; experiment: Antifungal activity against Saprolegnia monoica assessed as inhibition of mycelial growth at 200 uM after 3 days; type: functional; settings: 72 h, read-out: GI
[2] = test system: Pythium aphanidermatum; experiment: Effect on CesA4 gene expression in Pythium aphanidermatum at 100 uM after 0.5 to 8 hr by qRT-PCR method; type: functional, organism-based
[3] = test system: Pythium aphanidermatum; experiment: Inhibition of zoospores release of Pythium aphanidermatum synchronised cytospores at 100 uM after 4 hr; type: functional, organism-based
[4] = test system: Pythium aphanidermatum; experiment: Effect on PaChs gene expression in Pythium aphanidermatum at 200 uM after 0.5 to 8 hr by qRT-PCR method; type: functional, organism-based
[5] = test system: Pythium aphanidermatum; experiment: Effect on CesA2 gene expression in Pythium aphanidermatum at 200 uM after 8 hr by qRT-PCR method; type: functional, organism-based
[6] = test system: Pythium aphanidermatum; experiment: Effect on PaChs gene expression in Pythium aphanidermatum at 100 uM after 0.5 to 8 hr by qRT-PCR method; type: functional, organism-based
[7] = test system: Pythium aphanidermatum; experiment: Down-regulation of CesA2 gene expression in Pythium aphanidermatum at 200 uM after 0.5 to 4 hr by qRT-PCR method; type: functional, organism-based
[8] = test system: Pythium aphanidermatum; experiment: Effect on CesA1 gene expression in Pythium aphanidermatum at 200 uM after 8 hr by qRT-PCR method; type: functional, organism-based
[9] = test system: Pythium aphanidermatum; experiment: Antifungal activity against Pythium aphanidermatum assessed as inhibition of mycelial growth at 200 uM after 3 days; type: functional; settings: 72 h, read-out: GI
[10] = test system: Pythium aphanidermatum; experiment: Inhibition of germ tube elongation of Pythium aphanidermatum synchronised cytospores at >100 uM after 4 hr; type: functional, organism-based
[11] = test system: Pythium aphanidermatum; experiment: Inhibition of germ tube elongation of Pythium aphanidermatum synchronised cytospores at 500 uM after 4 hr; type: functional
[12] = test system: Pythium aphanidermatum; experiment: Inhibition of zoospores encystment of Pythium aphanidermatum synchronised cytospores at 100 uM after 4 hr; type: functional, organism-based
[13] = test system: Pythium aphanidermatum; experiment: Effect on CesA3 gene expression in Pythium aphanidermatum at 100 uM after 0.5 to 8 hr by qRT-PCR method; type: functional, organism-based
[14] = test system: Pythium aphanidermatum; experiment: Effect on CesA3 gene expression in Pythium aphanidermatum at 200 uM after 8 hr by qRT-PCR method; type: functional, organism-based
[15] = test system: Pythium aphanidermatum; experiment: Effect on CesA4 gene expression in Pythium aphanidermatum at 200 uM after 8 hr by qRT-PCR method; type: functional, organism-based
[16] = test system: Pythium aphanidermatum; experiment: Down-regulation of CesA1 gene expression in Pythium aphanidermatum at 200 uM after 0.5 to 4 hr by qRT-PCR method; type: functional, organism-based
[17] = test system: Pythium aphanidermatum; experiment: Down-regulation of CesA3 gene expression in Pythium aphanidermatum at 200 uM after 0.5 to 4 hr by qRT-PCR method; type: functional, organism-based
[18] = test system: Pythium aphanidermatum; experiment: Down-regulation of CesA4 gene expression in Pythium aphanidermatum at 200 uM after 0.5 to 4 hr by qRT-PCR method; type: functional, organism-based
[19] = test system: Pythium aphanidermatum; experiment: Up-regulation of CesA1 gene expression in Pythium aphanidermatum at 100 uM after 8 hr by qRT-PCR method relative to untreated control; type: functional
[20] = test system: Pythium aphanidermatum; experiment: Antifungal activity against Pythium aphanidermatum assessed as inhibition of mycelial growth at 10 uM after 3 days; type: functional, organism-based
[21] = test system: Pythium aphanidermatum; experiment: Inhibition of germ tube elongation of Pythium aphanidermatum synchronised cytospores at 0.5 to 121 uM after 4 hr; type: functional, organism-based
[22] = test system: Pythium aphanidermatum; experiment: Antifungal activity against Pythium aphanidermatum assessed as inhibition of mycelial growth at 100 uM after 3 days; type: functional; settings: 72 h, read-out: GI
[23] = test system: Pythium aphanidermatum; experiment: Up-regulation of CesA2 gene expression in Pythium aphanidermatum at 100 uM after 8 hr by qRT-PCR method relative to untreated control; type: functional

Structure (SMILES): N#Cc1c(Cl)cccc1Cl [DICHLOBENIL]
- inhibition of growth at 200 µM [1]: 40%
- Activity [2]: inactive
- inhibition [3]: inactive
- Activity [4]: inactive
- Activity [5]: inactive
- Activity [6]: inactive
- Activity [7]: Active
- Activity [8]: inactive
- inhibition of growth at 200 µM [9]: 12%
- inhibition [10]: Active
- inhibition at 500 µM [11]: 18%
- inhibition [12]: inactive
- Activity [13]: inactive
- Activity [14]: inactive
- Activity [15]: inactive
- Activity [16]: Active
- Activity [17]: Active
- Activity [18]: Active

Structure (SMILES): C#CCOc1ccc(CCNC(=O)C(OCC#C)c2ccc(Cl)cc2)cc1OC (stereo not drawn) [MANDIPROPAMID]
- fold change (FC) [19]: 1.6
- growth inhibition (GI) [20]: inactive
- inhibition [21]: inactive
- inhibition of growth at 100 µM [22]: 34%
- fold change (FC) [23]: 2
